For series [1], the system named is Omm1.3 cells. Briefly: Transwell migration assay. It counts as cell-based. Particulars: HCM+UM-exo as chemoattractant, 24 hrs, 25 μM ibudilast, 10 μM diacerein, 1.0 μM reparixin, 0.25 μM crizotinib. As to the method: FIG. 1A depicts trans-well migration assay results in which Omm1.3 cells were stimulated with hepatocyte conditioned media and uveal melanoma exosomes (HCM+UM-exo) in the presence of vehicle (DMSO), 10 μM diacerein, 1.0 μM reparixin, 0.25 μM crizotinib or 25 μM ibudilast.
FIG. 1B depicts migrated cell count under the microscope from the trans-well migration assay, three fields for each condition. Experiments were repeated three times ±sd, p<0.001.
Exosome isolation. Exosomes were isolated from UM cell lines kept in serum-free media for 24 hrs. The media was collected and subjected to serial centrifugation steps starting with a spin at 3,000×g to remove dead cells and cell debris. The supernatant from this step is spun at 20,000×g to pellet microvesicles and large EVs. Lastly, the supernatant from this step is centrifuged at 100,000×g to pellet the exosome fraction.
Transwell migration assay. The in vitro migration assays were performed with 5×104 Omm1.3 cells seeded in 500 μL serum-free medium on BioCoat Matrigel Invasion Chambers (BD Biosciences). The conditioned media of the hepatocytes treated or untreated with UM-exosome was used as chemoattractant in the lower chamber. The cells were also treated with vehicle (DMSO), 0.25 μM crizotinib or 25 μM ibudilast for 24 hrs. […] Images of stained cells were taken through a microscope and quantified by counting cells in triplicate samples.

For a further series, the system named is MIF. Briefly: Plasma level of MIF. Particulars: found by the inventors; no method given.
Series [2] has as its system Omm1.3 cells. Briefly: Wound healing (scratch) assay, Omm1.3. It counts as cell-based. Particulars: exposed to HCM+UM-exo, 25 μM ibudilast, 48 hours. As to the method: FIG. 1C depicts Omm1.3 cells in scratch assays, in which after the scratch, the cells were incubated with control HCM or with HCM of hepatocytes exposed to UM-exosomes with or without 25 μM ibudilast. Pictures were taken at zero time-point or after 48 hours under a microscope at 10× magnification. Wound healing assay. Omm1.3 and MP41 cells were scratched with a sterile 200 μL pipette tip. Cells were washed in PBS and replaced with fresh RPMI 1640 complete media, or hepatocyte conditioned media (HCM) pretreated with UM-exo. Images of the wounded area were recorded using an inverted phase-contrast microscope at the indicated time points.

For series [3] the following is noted: Sanftner et al Xenobiotica 2009; cited from earlier work.
A further series relates to GFP-Luc-Omm1.3 cells. Briefly: Metastatic uveal melanoma (UM) mouse model. It counts as in vivo. Particulars: UM-exosome-educated mice, 7.5 mg/kg ibudilast i.p. daily. Here is the method:
FIG. 2A depicts quantification of bioluminescence intensity for each mouse in the abdominal region, while excluding bioluminescence in the eyes, in an evaluation of ibudilast in a metastatic UM mouse model. […] FIG. 2B depicts representative images of H&E-stained mouse liver sections from the metastatic UM mouse model. Mice were injected intravenously with vehicle (PBS) or 10 μg UM-exosome isolated from […] in 100 μL PBS for 7 days. Subsequently, GFP-Luc-Omm1.3 cells were retro-orbitally injected in the mice as described in Surriga et al. (Mol. Cancer Ther., 2013, 12:2817-26). Ibudilast was dissolved to a concentration of 1 mg/ml in physiological saline containing 10% v/v of polyoxyethylene hydrogenated castor oil 60 (HCO60). A week later, the mice were treated daily with vehicle or 7.5 mg/kg ibudilast i.p. and monitored for the development of metastasis. […] The mice were monitored weekly for luminescence with luciferin (Gold Biotechnology). After 7 weeks the livers and lungs were collected and analyzed for luminescence. Experiments were carried out under an Institutional Animal Care and Use Committee—approved (IACUC) protocol, and Institutional guidelines for the proper and humane use of animals were followed. Statistical significance was determined by 2-sample Student t-test.

The next series concerns MP41 cells. Description: Wound healing (scratch) assay, MP41. Particulars: exposed to HCM+UM-exo; data not shown. It counts as cell-based. As to the method: Wound healing assay. Omm1.3 and MP41 cells were scratched with a sterile 200 μL pipette tip. Cells were washed in PBS and replaced with fresh RPMI 1640 complete media, or hepatocyte conditioned media (HCM) pretreated with UM-exo. Images of the wounded area were recorded using an inverted phase-contrast microscope at the indicated time points.

Regarding `CC(C)C(=O)c1c(C(C)C)nn2ccccc12` [ibudilast, 2-methyl-1-(2-(1-methylethyl)pyrazolo(1,5-a)pyridin-3-yl)1-propanone], the “UM cell migration toward UM-exosome-stimulated hepatocyte conditioned media (HCM)” value in the series with Omm1.3 cells [1] is “dramatically inhibited cell migration”. Also, the “plasma level of MIF” value with MIF is recorded as “lowers plasma level of MIF”. Further, in the series with Omm1.3 cells [2], the “wound healing ability of UM cell line Omm1.3” value was “suppressed the wound healing ability”. Also, the CNS penetration entry in series [3] is given as “good. CNS penetration”. Also, in the series with GFP-Luc-Omm1.3 cells, the “metastatic spread (bioluminescence signal intensity in the abdominal region)” value is “showed inhibition of metastatic spread” and the “presence of cancer cell clusters in liver sections (H&E staining)” value was “not in the livers”. Besides, the “bioluminescence in lungs and livers at necropsy” value in the series with GFP-Luc-Omm1.3 cells (after 7 weeks) is “no bioluminescence signal in organs”. Besides, in the series with MP41 cells, the “wound healing ability of UM cell line MP41” value is on record as “suppressed the wound healing ability”.

These data come from patent publication US12005049B2, “Methods of preventing cancer metastasis” (MediciNova, Inc., priority 2021, dated 2024).
